{"source": "paper PMC9481636", "about": "“Mechanism of action of non-camptothecin inhibitor Genz-644282 in topoisomerase I inhibition” (Communications Biology, 2022)", "assay_type_in_all_cases": "biochemical", "key": {"Topoisomerase I (TOP1) [1]": {"target": "T1, Topoisomerase I (TOP1) (Homo sapiens, UniProt P11387, N722S)", "T1 construct": "6×His-tagged TOP1 (baculovirus, High Five cells)", "T1 sequence (P11387 2-765 N722S)": "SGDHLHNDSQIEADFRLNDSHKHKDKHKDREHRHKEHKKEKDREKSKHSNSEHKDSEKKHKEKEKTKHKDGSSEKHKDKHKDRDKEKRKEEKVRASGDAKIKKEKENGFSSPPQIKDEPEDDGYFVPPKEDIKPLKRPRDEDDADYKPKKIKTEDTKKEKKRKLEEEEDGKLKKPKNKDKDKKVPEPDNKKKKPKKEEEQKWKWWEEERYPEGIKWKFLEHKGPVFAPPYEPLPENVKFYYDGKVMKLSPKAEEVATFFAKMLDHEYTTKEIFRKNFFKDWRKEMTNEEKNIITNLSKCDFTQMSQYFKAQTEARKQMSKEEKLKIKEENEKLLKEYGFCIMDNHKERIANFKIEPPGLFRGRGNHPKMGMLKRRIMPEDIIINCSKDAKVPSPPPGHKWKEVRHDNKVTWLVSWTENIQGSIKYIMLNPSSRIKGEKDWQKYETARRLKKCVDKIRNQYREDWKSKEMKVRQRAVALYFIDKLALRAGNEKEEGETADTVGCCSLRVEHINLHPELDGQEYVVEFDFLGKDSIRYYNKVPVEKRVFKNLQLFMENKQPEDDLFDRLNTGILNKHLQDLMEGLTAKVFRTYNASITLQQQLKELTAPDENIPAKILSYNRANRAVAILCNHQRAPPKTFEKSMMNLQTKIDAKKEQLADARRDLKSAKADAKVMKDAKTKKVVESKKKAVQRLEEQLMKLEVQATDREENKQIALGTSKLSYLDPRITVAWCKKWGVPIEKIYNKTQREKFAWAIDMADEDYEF", "assay": "nicked-DNA accumulation assay with purified recombinant TOP1 N722S, […] Genz"}, "Topoisomerase I (TOP1) [2]": {"target": "T2, Topoisomerase I (TOP1) (Homo sapiens, UniProt P11387)", "T2 construct": "6×His-tagged TOP1 (baculovirus, High Five cells)", "T2 sequence (P11387 2-765)": "T1 sequence (P11387 2-765 N722S) with S721N", "assay": "nicked-DNA accumulation/relaxation assay with purified recombinant wild-type TOP1"}, "Topoisomerase I (TOP1) [3]": {"target": "T3, Topoisomerase I (TOP1) (Homo sapiens, UniProt P11387, N722A)", "T3 construct": "6×His-tagged TOP1 (baculovirus, High Five cells)", "T3 sequence (P11387 2-765 N722A)": "T1 sequence (P11387 2-765 N722S) with S721A", "assay": "nicked-DNA accumulation/relaxation assay with purified recombinant TOP1 N722A"}}, "note": "Numbering of substitutions follows the chain as printed."}
{"smiles": "CNCCn1c(=O)c2cc(OC)c(OC)cc2c2cnc3cc4c(cc3c21)OCO4", "note": "[Genz, 8,9-dimethoxy-5-(2-N-methylaminoethyl)-2,3-methylenedioxy-5H-dibenzo[c,h][1,6]naphthyridin-6-one]", "values": [{"measurement": "nicked-DNA accumulation assay with purified recombinant TOP1 N722S, 10 μM Genz", "setting": "Topoisomerase I (TOP1) [1]", "result": "The enhanced accumulation of nicked DNA appeared only in the N722S mutant after treatment with Genz"}, {"measurement": "nicked-DNA accumulation/relaxation assay with purified recombinant wild-type TOP", "setting": "Topoisomerase I (TOP1) [2]", "result": "slight accumulation of nicked DNA was also observed for the wild type"}, {"measurement": "nicked-DNA accumulation/relaxation assay with purified recombinant TOP1 N722A", "setting": "Topoisomerase I (TOP1) [3]", "result": "accumulation of nicked DNA on N722A and N722S proteins after treatment with Genz was higher than that on the wild type"}]}
